Consider 10 compounds from ChEMBL document CHEMBL5316373, “Discovery of novel bicyclic[3.3.0]proline peptidyl α-ketoamides as potent 3CL-protease inhibitors for SARS-CoV-2” (Bioorg Med Chem Lett, 2023).

For series [1], the target named is Replicase polyprotein 1ab (Severe acute respiratory syndrome coronavirus 2, UniProt P0DTD1). Put plainly: Inhibition of SARS CoV-2 main protease preincubated for 30 min followed by substrate addition and measured after 60 mins by fluorescence assay.
A short description of series [2]: Stability of compound in mouse plasma assessed as compound remaining and measured after 2 hrs. Type of series: ADME, cell-free.
Series [3] in a line: Stability of compound in rat plasma assessed as compound remaining and measured after 2 hrs. Type of series: ADME, cell-free.
A short description of series [4]: Stability of compound in human plasma assessed as compound remaining and measured after 2 hrs. Type of series: ADME, cell-free.
Series [5] in a line: Clearance in rat at 2 mg/kg, iv. Type of series: ADME, organism-based. As to conditions: in vivo.
Series [6] is described as follows: Volume of distribution at steady state in rat at 2 mg/kg, iv. Type of series: ADME, organism-based. As to conditions: in vivo, read-out: Vdss.
Series [7] is described as follows: Half life in rat 2 mg/kg, iv. Type of series: ADME, organism-based. The following applies: in vivo.
The nature of series [8]: Cmax in mouse at 10 mg/kg, po. Also noted: route po. Type of series: ADME, organism-based. As to conditions: in vivo.
Series [9] is described as follows: Cmax in rat at 10 mg/kg, po. Type of series: ADME, organism-based. Also noted: route po. The following applies: in vivo.
Series [10] is described as follows: AUC in mouse at 10 mg/kg, po. The following applies: in vivo. Type of series: ADME, organism-based. Also noted: route po.
The nature of series [11]: AUC in rat at 10 mg/kg, po. Type of series: ADME, organism-based. Set-up: dose 10 mg/kg, route po. The following applies: in vivo.
Series [12] is described as follows: Oral bioavailability in mouse at 10 mg/kg. The following applies: in vivo. Type of series: ADME, organism-based.
Series [13] is described as follows: Oral bioavailability in rat at 10 mg/kg. Type of series: ADME, organism-based. As to conditions: in vivo.
Series [14] relates to Human coronavirus OC43. Nature of the series: In vivo antiviral activity against HCoV-OC43 infected in mouse assessed as organism survival rate at 50 mg/kg,ip for 7 days. As to conditions: time 7 day. Type of series: functional.
In series [15] the test system is Human coronavirus OC43. Nature of the series: In vivo antiviral activity against HCoV-OC43 infected in mouse assessed as organism survival rate at 25 mg/kg,ip for 7 days. The following applies: time 7 day. Type of series: functional.
The test system of series [16] is Human coronavirus OC43. Put plainly: In vivo antiviral activity against HCoV-OC43 infected in mouse assessed as organism survival rate at 12.5 mg/kg,ip for 7 days. As to conditions: time 7 day. Type of series: functional.
Series [17] concerns Human coronavirus OC43. Put plainly: In vivo antiviral activity against HCoV-OC43 infected in mouse assessed as organism survival rate at 12.5 to 50 mg/kg,ip for 7 days. The following applies: dose 12.5-50 mg/kg, time 7.0 day. Type of series: functional, organism-based.
Series [18] is described as follows: Toxicity in mouse infected with HCoV-OC43 assessed as body weight change at 12.5 to 50 mg/kg, ip for 7 days. Type of series: organism-based. The following applies: in vivo, 168 h, dose 12.5-50 mg/kg, time 7 day.
The test system of series [19] is Human coronavirus OC43. Nature of the series: microbe, parasite or virus in culture. As to conditions: Betacoronavirus 1, MRC5, 120 h.
The test system of series [20] is SARS-CoV-2. Nature of the series: microbe, parasite or virus in culture. As to conditions: Severe acute respiratory syndrome coronavirus 2, Vero, 24 h.
The nature of series [21]: Clearance in mouse at 3 mg/kg, iv. Type of series: ADME, organism-based. As to conditions: in vivo.
Series [22] is described as follows: Volume of distribution at steady state in mouse at 3 mg/kg, iv. Type of series: ADME, organism-based. The following applies: in vivo, read-out: Vdss.
The nature of series [23]: Half life in mouse 3 mg/kg, iv. Type of series: ADME, organism-based. As to conditions: in vivo.

With `CC(C)(C)NC(=O)C(=O)[C@H](C[C@@H]1CCNC1=O)NC(=O)[C@@H]1[C@H]2CCC[C@H]2CN1C(=O)[C@@H](NC(=O)C(F)(F)F)C1CCCCC1`, the half-inhibitory concentration (IC50) in series [1] came out at 34 nM. Besides, the Stability in series [2] was 106%; in series [3], 96%; in [4], 102%. The compound also displayed a clearance in [5] of 2.55 mL/min/kg. Further, the Vd in series [6] was found to be 0.929 L/kg. Further, the half-life in series [7] was 262 min. Besides, the values for the Cmax in [8] and in series [9] were 4810 nM and 3790 nM, respectively. The area under the curve (AUC) in series [10] stood at 33 µM·h; in series [11], 37.4 µM·h. Besides, the results for the bioavailability in series [12] and in series [13] were 32% and 37.4%, respectively. The Activity was 100% in series [14]; 83.3% in series [15]; 66.6% in series [16]; “Dose-Dependent Effect” in series [17]; “Toxic” in series [18]. The EC50 is 146 nM in [19] and 53 nM in series [20].

In the case of `CC(=O)N[C@H](C(=O)N1C[C@@H]2CCC[C@@H]2[C@H]1C(=O)N[C@H](C#N)C[C@@H]1CCNC1=O)C1CCCCC1`, the IC50 in series [1] is 551 nM. In series [19], this compound showed an EC50 of 2780 nM.

In [1], `CC(C)(C)[C@H](NC(=O)C(F)(F)F)C(=O)N1C[C@@H]2CCC[C@@H]2[C@H]1C(=O)N[C@H](C#N)C[C@@H]1CCNC1=O` had an IC50 of 43 nM. Further, the results for the Stability in series [2], in series [3] and in series [4] were 102%, 100% and 106%, respectively. Moreover, the clearance in series [21] turned out to be 79.3 mL/min/kg; in [5], 75.4 mL/min/kg. In addition, the Vd in series [22] was found to be 0.64 L/kg; in series [6], 1.25 L/kg. Moreover, the half-life in series [23] was 6.66 min; in [7], 14.3 min. For the same compound, the Cmax in series [8] came to 790 nM; in series [9] it was 2980 nM. The area under the curve (AUC) in series [10] was 0.553 µM·h; in [11] it was 2.31 µM·h. Also, the bioavailability stood at 13.3% in series [12] and 52% in [13]. In addition, the concentration for a half-maximal effect (EC50) was 136 nM in series [19] and 64 nM in series [20].

In series [21], `CC(C)(C)NC(=O)C(=O)[C@H](C[C@@H]1CCNC1=O)NC(=O)[C@@H]1[C@H]2CCC[C@H]2CN1C(=O)[C@@H](NC(=O)C(F)(F)F)C1CCCC1` returned a clearance of 5.06 mL/min/kg. The Vd in series [22] amounted to 0.911 L/kg. In [23], this compound gave a half-life of 196 min. Also, in [8], the Cmax was determined as 4800 nM. In addition, the AUC in series [10] is 16.8 µM·h. The compound further returned a bioavailability in [12] of 30.8%. In series [19], this compound yielded a 50% effective concentration (EC50) of 421 nM.

For the compound `CC(C)(C)[C@H](NC(=O)C(F)(F)F)C(=O)N1C[C@H]2[C@@H]([C@H]1C(=O)N[C@H](C#N)C[C@@H]1CCNC1=O)C2(C)C`, the Stability is 91% in series [2] and 84% in series [3]. Besides, the results for the clearance in series [21] and in series [5] were 30.2 mL/min/kg and 42 mL/min/kg, respectively. Further, the figures for the Vd in series [22] and in series [6] were 0.456 L/kg and 1.24 L/kg, respectively. Also, the half-life in series [23] is 42.8 min; in series [7] it was 46.2 min. Also, the peak concentration (Cmax) is 2720 nM in series [8] and 2140 nM in [9]. In addition, the area under the curve (AUC) in series [10] was found to be 3.58 µM·h; in series [11], 2.38 µM·h. In addition, the bioavailability was found to be 32.7% in series [12] and 29.9% in series [13]. Moreover, the Activity in series [14] amounted to 100%.

The compound `N#C[C@H](C[C@@H]1CCNC1=O)NC(=O)[C@@H]1[C@H]2CCC[C@H]2CN1C(=O)[C@@H](NC(=O)C(F)(F)F)C1CCCCC1` yielded a half-maximal inhibitory concentration (IC50) in series [1] of 47 nM. Also, the Stability in [2] is 100%; in series [4], 108%. The figures for the clearance in series [21] and in [5] were 92.2 mL/min/kg and 62.7 mL/min/kg, respectively. Besides, the Vd was found to be 1.01 L/kg in series [22] and 1.34 L/kg in [6]. In addition, the values for the half-life in [23] and in series [7] were 11.3 min and 22.7 min, respectively. For the same compound, the Cmax is 1160 nM in series [8] and 3470 nM in series [9]. Also, the exposure (AUC) turned out to be 0.478 µM·h in series [10] and 2.92 µM·h in series [11]. For the same compound, the bioavailability in [12] was determined as 14.2%; in series [13], 57.6%. Also, the EC50 in [19] is 112 nM; in series [20] it was 43 nM.

`N#C[C@H](Cc1n[nH]c2ccccc12)NC(=O)[C@@H]1[C@H]2CCC[C@H]2CN1C(=O)[C@@H](NC(=O)C(F)(F)F)C1CCCCC1` displayed a concentration for half-maximal inhibition (IC50) in series [1] above 1000 nM. In series [19], this compound showed a half-maximal effective concentration (EC50) of 4890 nM.

Regarding `N#C[C@H](C[C@@H]1CCNC1=O)NC(=O)[C@@H]1[C@H]2CCC[C@H]2CN1C(=O)[C@@H](NC(=O)C(F)(F)F)c1ccc(F)cc1`, the midpoint of inhibition in series [1], the IC50, lay at 165 nM. In series [19], this compound displayed an EC50 of 677 nM.

With `CC(C)(C)[C@H](NC(=O)C(F)(F)F)C(=O)N1C[C@@H]2C[C@@H]2[C@H]1C(=O)N[C@H](C#N)C[C@@H]1CCNC1=O`, the half-inhibitory concentration (IC50) in series [1] was determined as 356 nM. Moreover, in [19], the 50% effective concentration (EC50) worked out at 5810 nM.

For the compound `CC(C)(C)NC(=O)C(=O)[C@H](C[C@@H]1CCNC1=O)NC(=O)[C@@H]1[C@H]2CCC[C@H]2CN1C(=O)[C@@H](NC(=O)C(F)(F)F)C1CC2(CCC2)C1`, half-maximal inhibition in series [1] (IC50) required 77 nM. In [19], this compound had an EC50 of 444 nM.
